# In patent US20220401468A1 (priority 2021, published 2022):
# Tested on: VSV-eGFP-SARS-CoV-2
# Format: cell-based, VSV-SARS-CoV-2 chimeric virus
substance,measurement,value
Heparin sodium salt,"half-maximal inhibitory concentration (IC50), infected (GFP+) cells",0.03 µg/mL
